Results from EP3400955B1, “USE OF CRYPTONIN FOR TREATMENT OF CANCER” (Istanbul Universitesi Rektorlugu, priority 2016, dated 2025).
Like-named read-outs stand apart in the source and are kept apart here. Ends that are not written are not given here.

Columns and labels:
erythrocytes = settings: dose of 25-200 µg/ml; Park et al. (2007); cited from earlier work
[1] = system: 3T3 Fibroblast Cell Membrane; settings: 100 µg/ml, 24-hour incubation
Protocol: MCF-7 and MDA-MB 231 and 3T3 fibroblast cells were plated into sterile round slides with a diameter of 12 mm in the wells in 24-well plate such that each well contained 50,000 cells. The following day, the medium was replaced with a medium containing cryptonin at a concentration of 100 µg/ml. After 24-hour incubation, the cells were washed 2 times with 0.1 M sodium cacodylate buffer (pH 7.2) and fixed with 2.5% glutaraldehyde prepared in 0.1 M sodium cacodylate buffer for 2 hours. After the first fixation, the cells were washed again with 0.1 M sodium cacodylate buffer and fixed with 1% osmium tetroxide prepared in 0.2 M sodium cacodylate buffer for 30 minutes for the second time. After the cells were washed with 0.2 M sodium cacodylate buffer, they were taken in an increasing series of ethyl alcohol. Dehydration was performed by incubation 3 times with 30% alcohol for 5 minutes, 3 times with 50% alcohol for 5 minutes, 2 times with 70% alcohol for 10 minutes, 2 times with 85% alcohol for 15 minutes, 2 times with 95% alcohol for 15 minutes and 3 times with 100% alcohol for 10 minutes. After the slides were air-dried, they were coated with golden by BioRad SC 502 coating device. The cells were examined with Jeol Neoscope JCM-500 scanning electron microscope and their photographs were taken (Vitale et al., 1998; Hilchie et al., 2011).

MDA-MB 231 cells [2] = experiment: Type of cell death by acridine orange/ethidium bromide double staining; assay type: cell-based; settings: 24 hours, mean +/- Standard Error
Protocol: (§1) Cells were stained with acridine orange/ethidium bromide double staining method to morphologically analyze whether cryptonin-induced cell death occurs by a necrotic pathway or by an apoptotic pathway. For this purpose, breast cancer cells were plated in a 24-well plate, with 10,000 cells being present in each well and incubated for 24 hours at the above-mentioned different concentrations of antimicrobial peptides. After incubation, a mixture of acridine orange (Sigma) (100 µg/ml) /ethidium bromide stain (Sigma) (100 µg/ml) prepared in PBS was applied to the cells and the cells were visualized using a FITC/CY3 filter on a fluorescent microscope (Nikon DS5MCU2). 200 cells from each group were counted according to the staining pattern. Cells were grouped as viable, apoptotic and necrotic according to the staining pattern of their nuclei (Spector et al., 1998). Viable cells were distinguished as having green chromatin nuclei in an organized structure, apoptotic cells were distinguished as having green or orange fragmented nuclei, and necrotic cells were distinguished as normal colored but having orange nuclei like normal cells (Ribble et al., 2005).

MCF-7 cells [3] = experiment: as above; assay type: cell-based; settings: 24 hours, mean +/- Standard Error
Protocol: as §1

MDA-MB 231 cells [4] = settings: 24 hours, positive control = 100%
Protocol: (§2) The lactate dehydrogenase (LDH) release assay is based on the measurement of a cytoplasmic enzyme, lactate dehydrogenase, activity released from damaged cells (Lobner, 2000) and is used for the assessment of cellular cytotoxicity. The cytotoxic effect of cryptonin on MCF-7 and MDA-MB 231 breast cancer cell lines was determined by measuring the activity of lactate dehydrogenase (LDH) enzyme released from damaged cells and a Cytotoxicity Detection Kit, LDH (Roche Molecular Diagnostics, Germany) was used for this purpose.
(§3) In LDH test, a negative control, a control group for spontaneous LDH release from the cells, and a positive control group for maximum LDH release were studied, as well as experimental groups to which peptide was administered. […] For this purpose, doses of 10, 25, 50 and 100 µg/ml were administered for MCF-7 cells and doses of 7.5, 10, 25 and 50 µg/ml were administered for MDA-MB 231 cells, for 24 hours. Cells were grown in the flasks of 75 cm, then removed with trypsin-EDTA and centrifuged. Cells were suspended in medium at 5000 cells per 100 µl, and 100 µl of cell suspension was transferred to 96-well plates. All control groups and experimental groups were studied with 3 wells and the experiment was repeated 3 times. After a 24-hour incubation, the media of the control groups were refreshed. The medium of the experimental groups was replaced with a medium containing different concentrations of peptide. The lactate dehydrogenase enzyme activity released from the cells after the cells were incubated with cryptonin for 24 hours was determined following the manufacturer's instructions. 5 µl of lysis solution (2% Triton-X-100) was added to the wells of the positive control group and the plate was incubated for 15 minutes at 37°C. To measure LDH activity, 100 µl of the freshly prepared reaction mixture containing catalyst (Diaphorase/NAD^+ mixture) and dye solution (iodotetrazolium chloride (INT) and sodium lactate) was added to each well. After 30 minutes of incubation in the dark at room temperature, the reaction was stopped by the addition of 50 µL of stop solution (1N HCl) to each well. The plates were shaken for 10 seconds on an orbital shaker and the spectrophotometric absorbance was measured at a test wavelength of 490 nm and a reference wavelength of 690 nm. The results were determined as % cytotoxicity. The mean absorbance values of the negative control were subtracted from the control and experimental groups, the positive control group was considered to be 100% cytotoxic and the cytotoxicities were calculated by comparing the control and experimental groups with positive control group using the following formula: [formula]

MCF-7 cells [5] = settings: 24 hours, positive control = 100%
Protocol: as §2, §3

Protocol for 3T3 fibroblast cells: Yellow MTT is reduced to purple formazan crystals by the activity of mitochondrial dehydrogenases in viable cells. The intensity of the resulting purple color is directly proportional to the number of viable cells. MTT test was performed in 96-well plates. To this end, the cells grown in the flasks were removed by trypsin-EDTA, then collected by centrifugation and the cell pellet was suspended in the medium such that 5000 cells would be present per 100 µl. 5000 cells were plated in each well of the plate. In the following day, the medium in the wells was removed, fresh medium was added to the control group, and a medium containing anti-microbial peptide was added to the experimental groups at 8 different concentrations. This medium contained 10% serum.
Cells were exposed to different concentrations of antimicrobial peptide for 24 hours. At the end of this period, 30 µl of a solution of 3-(4,5-dimethylthiazol-2-yl)-2,5-diphenyltetrazolium bromide (MTT) was added to each well in the plate. […] The optical density was measured at a test wavelength of 570 nm and a reference wavelength of 630 nm. […] The mean absorbance values obtained from the control group were accepted as 100% cell viability and the values obtained from the wells treated with antimicrobial peptide were assessed versus control group.

## GLLNGLALRLGKRALKKIIKRLCR [cryptonin]
erythrocytes
  hemolysis of erythrocytes: 5%
3T3 fibroblast cells; dose range 25-200 µg/ml
  fibroblast cell viability: significantly reduced
3T3 fibroblast cells; less at 10 µg/ml, more at 25, 50, 100 and 200 µg/ml, 24 hours, cells representing normal cells
  number of viable cells: reduced the number of viable cells
[1]
  effect on cell membrane (scanning electron microscope): disrupted the cell membrane integrity by forming pores, slits and blebs
MDA-MB 231 cells [2]; 10 µg/ml
  Viable cell %: 95.88±1.6%
MDA-MB 231 cells [2]; 25 µg/ml
  Viable cell %: 95.53±2.9%
MDA-MB 231 cells [2]; 50 µg/ml
  Viable cell %: 45.13±4.1%
MDA-MB 231 cells [2]; 100 µg/ml
  Viable cell %: 0.04±0.1%
MDA-MB 231 cells [2]; 200 µg/ml
  Viable cell %: 0±0%
MCF-7 cells [3]; 10 µg/ml
  Viable cell %: 98.89±5%
MCF-7 cells [3]; 25 µg/ml
  Viable cell %: 85.3±4.8%
MCF-7 cells [3]; 50 µg/ml
  Viable cell %: 1.07±1.1%
MCF-7 cells [3]; 100 µg/ml
  Viable cell %: 0.06±0.2%
MCF-7 cells [3]; 200 µg/ml
  Viable cell %: 2.14±1.8%
MDA-MB 231 cells [4]; 7.5 µg/ml
  LDH release (% cytotoxicity): 7.09±0.7%
MDA-MB 231 cells [4]; 10 µg/ml
  LDH release (% cytotoxicity): 8.46±0.9%
MDA-MB 231 cells [4]; 25 µg/ml
  LDH release (% cytotoxicity): 24.24±2.1%
MDA-MB 231 cells [4]; 50 µg/ml
  LDH release (% cytotoxicity): 45.90±1%
MCF-7 cells [5]; 25 µg/ml
  LDH release (% cytotoxicity): 36.03±2.1%
MCF-7 cells [5]; 50 ug/ml
  LDH release (% cytotoxicity): 84.1±1.7%
MCF-7 cells [5]; 100 µg/ml
  LDH release (% cytotoxicity): 84.66±1.6%
